The record followed here is patent publication US20200055817A1 (AbbVie Deutschland GmbH & Co. KG, priority 2016, published 2020).

Common to all, as to type: cell-based
For assay [1], the target named is T1, human EDG8 (S1PR5) receptor (Homo sapiens, UniProt Q9H228).
T1 construct: carries the transgenes human EDG8 (S1PR5) receptor (Acession number NP_110387.1); expressed in transfected cells; host or cells: CHO-A21-EDG8#12 (CHO clone co-expressing mitochondrial aequorin and chimaeric Gaqi5)
As to the kind of experiment: Aequorin assay, agonist potency, CHO-A21-EDG8#12 cells. Particulars: agonist mode, aequorin luminescence; read-out: S1P5 EC50 range #. The procedure:
(§1) Agonistic activity was measured as described below.
(§2) Cell clone CHO-A21-Edg1#17 carries the transgenes human EDG1 (S1PR1) receptor (Accession number NP_001391.2), mitochondrially targeted Aequorin (active part corresponds to accession number 1SL8_A) and chimaeric Gaqi5=Gaq modified with the 5 C-terminal amino-acids replaced with those of the Gai protein (DCGLF). CHO-A2-S1P3 Mix is a cell pool ectopically expressing human EDG3 (S1PR3) receptor (Accession number NP_005217.2) mitochondrially targeted Aequorin (active part has a sequence similar to accession number AY601106.1) and GNA16 (Accession number NP_002059.3). Cell clone CHO-A21-EDG8#12 carries the transgenes human EDG8 (S1PR5) receptor (Acession number NP_110387.1), mitochondrially expressed Aequorin (active part corresponds to accession number 1SL8_A) and chimaeric Gaqi5 (Gaq modified to present the 5 last amino-acids of the Gai protein “DCGLF”; see above). Cells are grown to mid-log phase in culture medium (HAM's F12, 10% FBS, 100 IU/mL penicillin, 100 μg/mL streptomycin, 250 μg/mL Zeocin, 400 μg/mL G418). 18 hours prior to frozen cells preparation, the medium is changed to remove the antibiotics.
(§3) 18 hours prior to the test, vials of frozen cells are quickly thawed in a 37° C. water bath, cells are recovered by centrifugation and resuspended in assay buffer (DMEM/HAM's F12 with HEPES, without phenol red+0.1% fatty acid-free BSA). Cells are gently agitated in suspension overnight at RT in presence of 5 μM of Coelenterazine h (Molecular Probes). On the day of the test, cells are diluted to their final working concentrations in assay buffer and agitated in suspension for 1 h at RT. Cells are then placed in the luminescence reader (Hamamatsu Functional Drug Screening System 6000, FDSS6000). During cells incubation, compounds are prepared in 100% DMSO, and subsequently diluted in assay buffer. Compounds are then dispensed in the assay plate (black, clear-bottom, 384-well plate). After binding of agonists to the human S1P receptor the intracellular calcium concentration increases and binding of calcium to the Aequorin/Coelenterazine complex leads to an oxidation reaction of coelenterazine, which results in the production of Aequorin, coelenteramide, CO2 and light (Dmax 469 nm). The luminescent response is dependent on the agonist concentration. For agonist testing, 30 μL of cell suspension are injected on 30 μL of test compound or reference agonist in the assay plate. The resulting emission of light is recorded for 90 seconds using the FDSS6000. Dose response curves with the reference compounds are performed before testing the compounds. S1P is the reference agonist and JTE-013 the reference antagonist for S1P2.
(§4) Luminescence data are integrated over the reading interval for agonist and antagonist modes. To standardize the emission of recorded light (determination of the “100% signal”) across plates and across different experiments, some of the wells contain 100 μM digitonin or a saturating concentration of ATP (20 μM). Plates also contain the reference agonist at a concentration equivalent to the EC80 obtained during the test validation and the EC100. Dose-response data from test compounds were analyzed with XLfit (IDBS) software using nonlinear regression applied to a sigmoidal dose-response model and the following equation: […]

Another assay has as its target T2, S1P4 (Homo sapiens, UniProt O95977).
T2 sequence (O95977 1-384): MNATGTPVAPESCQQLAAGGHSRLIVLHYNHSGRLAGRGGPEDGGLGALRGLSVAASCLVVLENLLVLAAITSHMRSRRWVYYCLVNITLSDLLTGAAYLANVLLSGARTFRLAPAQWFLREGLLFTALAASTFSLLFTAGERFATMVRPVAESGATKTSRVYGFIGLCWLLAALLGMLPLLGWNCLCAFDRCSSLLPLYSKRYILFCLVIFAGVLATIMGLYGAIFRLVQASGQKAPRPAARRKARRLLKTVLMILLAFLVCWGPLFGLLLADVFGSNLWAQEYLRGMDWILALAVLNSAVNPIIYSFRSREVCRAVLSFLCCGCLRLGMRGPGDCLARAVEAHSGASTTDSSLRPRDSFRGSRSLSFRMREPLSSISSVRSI
As to the kind of experiment: Aequorin assay, agonist potency, S1P4. The settings on record: agonist mode, aequorin luminescence. The procedure: as §1, §3, §4

For assay [2], the target named is T3, human EDG1 (S1PR1) receptor (Homo sapiens, UniProt P21453).
T3 construct: expressed in transfected cells; host or cells: CHO-A21-Edg1#17 (CHO clone co-expressing mitochondrial aequorin and chimaeric Gaqi5)
T3 sequence (P21453 whole entry): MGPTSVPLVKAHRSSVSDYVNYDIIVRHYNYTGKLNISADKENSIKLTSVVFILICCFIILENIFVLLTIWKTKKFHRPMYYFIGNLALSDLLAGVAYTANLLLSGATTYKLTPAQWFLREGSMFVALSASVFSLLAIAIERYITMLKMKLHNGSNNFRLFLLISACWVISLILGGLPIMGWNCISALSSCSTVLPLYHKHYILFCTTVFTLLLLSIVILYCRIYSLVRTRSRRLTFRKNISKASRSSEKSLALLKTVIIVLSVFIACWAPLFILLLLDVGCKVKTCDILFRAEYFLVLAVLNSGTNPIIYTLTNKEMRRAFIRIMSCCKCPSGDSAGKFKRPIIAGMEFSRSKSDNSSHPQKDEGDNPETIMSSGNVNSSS
As to the kind of experiment: Aequorin assay, agonist potency, CHO-A21-Edg1#17 cells. The settings on record: agonist mode, aequorin luminescence; read-out: S1P1 EC50. The procedure: as §1, §2, §3, §4

T1 sequence (Q9H228 whole entry): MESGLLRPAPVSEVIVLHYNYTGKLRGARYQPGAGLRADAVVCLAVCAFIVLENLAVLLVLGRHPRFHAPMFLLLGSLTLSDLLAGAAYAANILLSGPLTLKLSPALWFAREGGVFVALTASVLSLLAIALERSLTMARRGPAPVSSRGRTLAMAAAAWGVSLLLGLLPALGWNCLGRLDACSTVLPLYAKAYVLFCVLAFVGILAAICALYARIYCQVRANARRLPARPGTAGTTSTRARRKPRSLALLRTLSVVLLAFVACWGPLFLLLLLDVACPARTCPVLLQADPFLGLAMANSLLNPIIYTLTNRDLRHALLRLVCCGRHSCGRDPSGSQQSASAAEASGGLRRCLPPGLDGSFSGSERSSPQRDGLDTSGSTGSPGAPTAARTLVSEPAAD

As to `O=C(O)C1CC(N2CC3(Cc4ccc(OCc5c(F)cccc5C5CC5)cc4C3)C2)C1` (stereo not drawn) [Example 87, 3-(5′-((2-cyclopropyl-6-fluorobenzyl)oxy)-1′,3′-dihydrospiro[azetidine-3,2′-inden]-1-yl)cyclobutanecarboxylic acid], the figures for the EC50 (in assay [1]; at S1P4; in assay [2]) were at most 10 nM, below 1000 nM and above 1000 nM, respectively.

As to `O=C(O)CN1CC2(Cc3ccc(OC4CCc5cc(Cl)cc(Cl)c54)cc3C2)C1` (stereo not drawn) [Example 69, 2-(5′-((5,7-dichloro-2,3-dihydro-1H-inden-1-yl)oxy)-1′,3′-dihydrospiro[azetidine-3,2′-inden]-1-yl)acetic acid], the 50% effective concentration (EC50) in assay [1] was at most 10 nM; on S1P4 it was below 1000 nM; in assay [2], above 1000 nM.

As to `O=C(O)CN1CC2(Cc3ccc(OCCOc4ccccc4)cc3C2)C1` [Example 70, 2-(5′-(2-phenoxyethoxy)-1′,3′-dihydrospiro[azetidine-3,2′-inden]-1-yl)acetic acid], the concentration giving a half-maximal response (EC50) in assay [1] was 100 to 1000 nM; on S1P4, below 1000 nM; in assay [2] it was above 1000 nM.

As for `CCOc1c(F)cc(COc2ccc3c(c2)CC2(C3)CN(CC3(C(=O)O)CC3)C2)cc1F` [Example 120, 1-((5′-((4-ethoxy-3,5-difluorobenzyl)oxy)-1′,3′-dihydrospiro[azetidine-3,2′-inden]-1-yl)methyl)cyclopropanecarboxylic acid], the concentration giving a half-maximal response (EC50) in assay [1] was 1000 to 10000 nM; at S1P4, below 1000 nM; in assay [2] it was above 1000 nM.

With `O=C(O)C1(CN2CC3(Cc4ccc(OCCc5cccc(Cl)c5)cc4C3)C2)CC1` [Example 57, 1-((5′-(3-chlorophenethoxy)-1′,3′-dihydrospiro[azetidine-3,2′-inden]-1-yl)methyl)cyclopropanecarboxylic acid], the EC50 is 100 to 1000 nM in assay [1], below 1000 nM at S1P4 and below 1000 nM in assay [2].

On to `CCOc1ccc(COc2ccc3c(c2)CC2(C3)CN(CC3(C(=O)O)CC3)C2)c(F)c1F` [Example 123, 1-((5′-((4-ethoxy-2,3-difluorobenzyl)oxy)-1′,3′-dihydrospiro[azetidine-3,2′-inden]-1-yl)methyl)cyclopropanecarboxylic acid], for which the figures for the EC50 (in assay [1]; on S1P4; in assay [2]) were 1000 to 10000 nM, below 1000 nM and above 1000 nM, respectively.

As to `CCOc1ccc(C#Cc2ccc3c(c2)CC2(C3)CN(C3CC(C(=O)O)C3)C2)cc1` (stereo not drawn) [Example 98, 3-(5′-((4-ethoxyphenyl)ethynyl)-1′,3′-dihydrospiro[azetidine-3,2′-inden]-1-yl)cyclobutanecarboxylic acid], the concentration for a half-maximal effect (EC50) in assay [1] was 10 to 100 nM; at S1P4 it was above 1000 nM; in assay [2] it was below 1000 nM.

For the molecule `O=C(O)C1(CN2CC3(Cc4ccc(OCc5c(F)cccc5F)cc4C3)C2)CC1` [Example 37, 1-((5′-((2,6-difluorobenzyl)oxy)-1′,3′-dihydrospiro[azetidine-3,2′-inden]-1-yl)methyl)cyclopropanecarboxylic acid compound with 2,2,2-trifluoroacetic acid (1:1)], the EC50 in assay [1] was 1000 to 10000 nM; on S1P4 it was below 1000 nM; in assay [2], above 1000 nM.

In the case of `CCc1cccc(F)c1COc1ccc2c(c1)CC1(C2)CN(CC(=O)O)C1` [Example 21, 2-(5′-((2-ethyl-6-fluorobenzyl)oxy)-1′,3′-dihydrospiro[azetidine-3,2′-inden]-1-yl)acetic acid], the results for the EC50 (in assay [1]; at S1P4; in assay [2]) were at most 10 nM, below 1000 nM and above 1000 nM, respectively.

For the molecule `N#Cc1cccc(COc2ccc3c(c2)CC2(C3)CN(CC3(C(=O)O)CC3)C2)c1` [Example 147, 1-((5′-((3-cyanobenzyl)oxy)-1′,3′-dihydrospiro[azetidine-3,2′-inden]-1-yl)methyl)cyclopropanecarboxylic acid], the EC50 in assay [1] is 100 to 1000 nM; at S1P4, below 1000 nM; in assay [2], above 1000 nM.

On to `O=C(O)C1(CN2CC3(Cc4ccc(OCc5c(F)cccc5Cl)cc4C3)C2)CC1` [Example 34, 1-((5′-((2-chloro-6-fluorobenzyl)oxy)-1′,3′-dihydrospiro[azetidine-3,2′-inden]-1-yl)methyl)cyclopropanecarboxylic acid compound with 2,2,2-trifluoroacetic acid (1:1)], for which the EC50 is 1000 to 10000 nM in assay [1], below 1000 nM on S1P4 and above 1000 nM in assay [2].

For `O=C(O)[C@H]1C[C@@H](N2CC3(Cc4ccc(OCc5cc(Cl)ccc5Cl)cc4C3)C2)C1` [Example 90, (1s,3s)-3-(5′-((2,5-dichlorobenzyl)oxy)-1′,3′-dihydrospiro[azetidine-3,2′-inden]-1-yl)cyclobutanecarboxylic acid], the EC50 in assay [1] is 100 to 1000 nM; at S1P4, below 1000 nM; in assay [2], above 1000 nM.

On to `O=C(O)CN1CC2(Cc3ccc(OC4CCc5ccccc54)cc3C2)C1` (stereo not drawn) [Example 66, 2-(5′-((2,3-dihydro-1H-inden-1-yl)oxy)-1′,3′-dihydrospiro[azetidine-3,2′-inden]-1-yl)acetic acid], for which the EC50 was at most 10 nM in assay [1], below 1000 nM on S1P4 and above 1000 nM in assay [2].

`O=C(O)C1(CN2CC3(Cc4ccc(OCc5ccccc5F)cc4C3)C2)CC1` [Example 140, 1-((5′-((2-fluorobenzyl)oxy)-1′,3′-dihydrospiro[azetidine-3,2′-inden]-1-yl)methyl)cyclopropanecarboxylic acid]: the EC50 in assay [1] was 1000 to 10000 nM; on S1P4, above 1000 nM; in assay [2] it was above 1000 nM.

On to `O=C(O)CN1CC2(Cc3ccc(C#Cc4ccc(OC5CCCC5)nc4)cc3C2)C1` [Example 78, 2-(5′-((6-(cyclopentyloxy)pyridin-3-yl)ethynyl)-1′,3′-dihydrospiro[azetidine-3,2′-inden]-1-yl)acetic acid], for which the concentration giving a half-maximal response (EC50) in assay [1] was at most 10 nM; on S1P4 it was below 1000 nM; in assay [2], below 1000 nM.

Take `Cc1ccccc1CCOc1ccc2c(c1)CC1(C2)CN(CC2(C(=O)O)CC2)C1` [Example 134, 1-((5′-(2-methylphenethoxy)-1′,3′-dihydrospiro[azetidine-3,2′-inden]-1-yl)methyl)cyclopropanecarboxylic acid]: the EC50 in assay [1] is 1000 to 10000 nM; at S1P4 it was below 1000 nM; in assay [2], above 1000 nM.

Turning to `O=C(O)C1(CN2CC3(Cc4ccc(OCc5cccc6c5CCC6)cc4C3)C2)CC1` [Example 125, 1-((5′-((2,3-dihydro-1H-inden-4-yl)methoxy)-1′,3′-dihydrospiro[azetidine-3,2′-inden]-1-yl)methyl)cyclopropanecarboxylic acid], the EC50 in assay [1] is 10 to 100 nM; on S1P4, below 1000 nM; in assay [2], above 1000 nM.

`O=C(O)C1(CN2CC3(Cc4ccc(OCCc5cccc(F)c5)cc4C3)C2)CC1` [Example 148, 1-((5′-(3-fluorophenethoxy)-1′,3′-dihydrospiro[azetidine-3,2′-inden]-1-yl)methyl)cyclopropanecarboxylic acid]: the figures for the EC50 (in assay [1]; on S1P4; in assay [2]) were 1000 to 10000 nM, below 1000 nM and above 1000 nM, respectively.
